Measured values published in patent publication US8685469B2, “In vitro anti-sickling activity of betulinic acid, oleanolic acid and their derivatives” (University of KwaZulu-Natal, priority 2009, dated 2014).

System: sickled blood cells (SS blood erythrocytes)
Experiment: In vitro anti-sickling activity, Emmel test on SS blood
Format: cell-based
Conditions: for Emmel Test Result: 2% sodium metabisulphite, 2 hours anaerobic, compounds diluted in NaCl 0.9%
Description: Blood samples were collected from “Centre de Medecine Mixte et d'Anémie SS” located in Kinshasa, Democratic Republic of Congo (DRC). The blood samples were first characterised by Hb electrophoresis on cellulose acetate gel, in order to confirm their SS nature, as previously reported by Mpiana et al., 2007^6. Confirmed SS blood samples were refrigerated at ˜4° C., and used for Emmel test.
A drop of physiological solution was put on a glass slide and a drop of SS blood was added on the physiological solution. One drop of 2% sodium metabisulphite solution was added on the slide glass which was hermetically covered using a cover glass with melted paraffin wax and kept covered for 2 hours in order to accelerate the sickling of the blood. After 2 hours in anaerobic conditions, the blood sample became deoxygenated and adopted sickle shape. Assay was observed under an optical microscope and the number of observed erythrocytes was determined using Thomas' cell (Courtejoie, J. and Hartaing, I, 1992)^7.
SS blood samples were contacted at different concentrations with diluted samples of the compounds (8), (9), (10), and (11) using physiological solution (NaCl 0.9%) as dilution solvent, according to Emmel's test procedure as reported above and optical measurements were taken.
Pictures were obtained with an optical microscope (motic). In order to convert the photonic micrograph image into a digital image, a Canon digital camera (Zoom X6) was used to digitize micrographs using Motic Images 200 version 1.3 software, on Windows XP. Thomas' cell was used to observe the number of erythrocytes. The results of the in vitro anti-sickling activity of betulinic acid (8), 3-acetoxybetulinic acid (11), oleanolic acid (9) and maslinic acid (10) are shown in Table 1.

| SMILES | Emmel Test Result | normalisation of sickled blood cells (Emmel test, in vitro) |
| --- | --- | --- |
| CC1(C)CC[C@]2(C(=O)O)CC[C@]3(C)C(=CC[C@@H]4[C@@]5(C)CC[C@H](O)C(C)(C)[C@@H]5CC[C@]43C)[C@@H]2C1 [DS/FS/1, Oleanolic acid] | + (+ = 10 to 50% normalisation of sickled blood cells.) | 10-50% |
| CC1(C)CC[C@]2(C(=O)O)CC[C@]3(C)C(=CC[C@@H]4[C@@]5(C)C[C@@H](O)[C@H](O)C(C)(C)[C@@H]5CC[C@]43C)[C@@H]2C1 [DS/FS/2, Maslinic acid] | +++ (+++ = >70% normalisation of sickled blood cells.) |  |
| C=C(C)[C@@H]1CC[C@]2(C(=O)O)CC[C@]3(C)[C@H](CC[C@@H]4[C@@]5(C)CC[C@H](O)C(C)(C)[C@@H]5CC[C@]43C)[C@@H]12 [DS/10/C/A, Betulinic acid] | +++ (+++ = >70% normalisation of sickled blood cells.) |  |
| C=C(C)[C@@H]1CC[C@]2(C(=O)O)CC[C@]3(C)[C@H](CC[C@@H]4[C@@]5(C)CC[C@H](OC(C)=O)C(C)(C)[C@@H]5CC[C@]43C)[C@@H]12 [DS/10/C/Ab, 3-acetoxybetulinic acid] | +++ (+++ = >70% normalisation of sickled blood cells.) |  |
